Source: patent US9357779B2 (priority 2010, dated 2016)

Assays:
Plasmopara viticola = test: Plasmopara test (grapevine)/protective; format: in vivo; settings: protective, active compound concentration 500 ppm, evaluation 6 days after inoculation
Procedure: Plasmopara Test (Grapevine)/Protective
To produce a suitable preparation of active compound, 1 part by weight of active compound is mixed with the stated amounts of solvent and emulsifier, and the concentrate is diluted with water to the desired concentration.
To test for protective activity, young plants are sprayed with the preparation of active compound at the stated application rate. After the spray coating has dried on, the plants are inoculated with an aqueous spore suspension of Plasmopara viticola and then remain in an incubation cabin at about 20° C. and 100% relative atmospheric humidity for 1 day. The plants are then placed in a greenhouse at about 21° C. and about 90% atmospheric humidity for 4 days. The plants are then moistened and placed in an incubation cabin for 1 day.
Evaluation is carried out 6 days after the inoculation. 0% means an efficacy which corresponds to that of the control, whereas an efficacy of 100% means that no infection is observed.

Phytophthora infestans = format: in vivo; settings: tomato plants, protective, active compound concentration 500 ppm, evaluation 7 days after inoculation
[1] = acidic range, pH 2.7, 0.1% aqueous formic acid/acetonitrile
Procedure: (§1) Calibration was carried out using unbranched alkan-2-ones (having from 3 to 16 carbon atoms) with known log P values (the log P values were determined by the retention times using linear interpolation between two successive alkanones).

[2] = pH 2.7, log P [a], acidic range, pH 2.7, 0.1% aqueous formic acid/acetonitrile

Procedure for physchem: as §1

Compound	efficacy (Plasmopara viticola) [%]	efficacy (Phytophthora infestans) [%]	log P [a] [1]	chromatographic logP (physchem; [2])	chromatographic logP (physchem; pH 7.8)
O=C(/C=C/c1csc(C2CCN(C(=O)Cn3nc(C(F)F)cc3C(F)F)CC2)n1)c1cc(F)ccc1Cl [Compound I-35]	89	95	3.64^[a];		
O=C(/C=C/c1csc(C2CCN(C(=O)Cn3nc(C(F)F)cc3C(F)F)CC2)n1)c1cccc2ccccc12 [Compound I-46]	100	95	2.84^[a]		
O=C(/C=C/c1csc(C2CCN(C(=O)Cn3nc(C(F)F)cc3C(F)F)CC2)n1)c1c(Cl)cccc1Cl [Compound I-43]	100	90	3.7^[a]		
Cc1ccc(Cl)cc1NC(=O)N1CCC(c2nc(C(=O)CC3CCCCC3)cs2)CC1 [Compound I-25, N-(5-Chloro-2-methylphenyl)-4-[4-(cyclohexylacetyl)-1,3-thiazol-2-yl]piperidine-1-carboxamide]	96	100		4.51	4.55
O=C(/C=C/c1csc(C2CCN(C(=O)Cn3nc(C(F)F)cc3C(F)F)CC2)n1)c1ccccc1Br [Compound I-29]	95	100	3.51^[a];		
O=C(/C=C/c1csc(C2CCN(C(=O)Cn3nc(C(F)F)cc3C(F)F)CC2)n1)c1ccccc1Cl [Compound I-42]	90	100	3.51^[a]		
O=C(/C=C/c1csc(C2CCN(C(=O)Cn3nc(C(F)F)cc3C(F)F)CC2)n1)c1c(F)cc(F)cc1F [Compound I-57]	91	98	3.51^[a];		
O=C(/C=C/c1csc(C2CCN(C(=O)Cn3nc(C(F)F)cc3C(F)F)CC2)n1)C1CCCC1 [Compound I-49]	79	90	3.52^[a]		
C#CCOc1ccccc1C(=O)/C=C/c1csc(C2CCN(C(=O)Cn3nc(C(F)F)cc3C(F)F)CC2)n1 [Compound I-55]	100	98	3.28^[a]		
O=C(CC1CCCCC1)c1csc(C2CCN(C(=O)Nc3cc(C(F)F)ccc3C(F)F)CC2)n1 [Compound I-30]	85	95	4.3^[a];		
O=C(CC1CCCCC1)c1csc(C2CCN(C(=O)Cn3nc(C(F)F)cc3C(F)F)CC2)n1 [Compound I-24, 2-[3,5-Bis(difluoromethyl)-1H-pyrazol-1-yl]-1-{4-[4-(cyclohexylacetyl)-1,3-thiazol-2-yl]piperidin-1-yl}ethanone]	100	94			
O=C(/C=C/c1csc(C2CCN(C(=O)Cn3nc(C(F)F)cc3C(F)F)CC2)n1)c1ccccc1I [Compound I-33]	89	95	3.65^[a];		
O=C(/C=C/c1csc(C2CCN(C(=O)Cn3nc(C(F)F)cc3C(F)F)CC2)n1)C1CCCCC1 [Compound I-44]	74	95	3.89^[a]		
O=C(/C=C/c1csc(C2CCN(C(=O)Cn3nc(C(F)F)cc3C(F)F)CC2)n1)c1c(F)cccc1F [Compound I-22, (2E)-3-[2-(1-{[3,5-Bis(difluoromethyl)-1H-pyrazol-1-yl]acetyl}piperidin-4-yl)-1,3-thiazol-4-yl]-1-(2,6-difluorophenyl)prop-2-en-1-one]	100	100		3.35	
O=C(/C=C/c1csc(C2CCN(C(=O)Cn3nc(C(F)F)cc3C(F)F)CC2)n1)c1ccc(F)cc1Br [Compound I-34]	84	95	3.7^[a];		
O=C(/C=C/c1csc(C2CCN(C(=O)Cn3nc(C(F)F)cc3C(F)F)CC2)n1)c1c(F)cccc1Cl [Compound I-36]	96	100	3.54^[a];		
O=C(/C=C/c1csc(C2CCN(C(=O)Cn3nc(C(F)F)cc3C(F)F)CC2)n1)c1cccc(F)c1 [Compound I-52]	94	98	3.35^[a]		
CC1CCCCC1C(=O)C=Cc1csc(C2CCN(C(=O)Cn3nc(C(F)F)cc3C(F)F)CC2)n1 (mixture of isomers) [Compound I-50]	93	95	4.11^[a]		
Cc1ccccc1C(=O)/C=C/c1csc(C2CCN(C(=O)Cn3nc(C(F)F)cc3C(F)F)CC2)n1 [Compound I-45]	100	95	3.56^[a]		
CC(CC(=O)c1c(F)cccc1F)c1csc(C2CCN(C(=O)Cn3nc(C(F)F)cc3C(F)F)CC2)n1 (centres unmarked) [Compound I-51]	100	98			
